According to patent US7981886B2, “Antibiotics derivatives” (Actelion Pharmaceutical Ltd., priority 2005, dated 2011):
Values after ≈ are worked out from the molar mass of the structure shown.

Assays:
Type in all cases: cell-based
[1] = system: S. aureus 29213; experiment: MIC by microdilution (NCCLS), S. aureus 29213; settings: Staphylococcus aureus, cation-adjusted Mueller-Hinton Broth, pH 7.2-7.3
Procedure: (§1) These assays have been performed following the description given in “Methods for dilution Antimicrobial Susceptibility Tests for Bacteria that Grow Aerobically, 4th ed.; Approved standard: NCCLS Document M7-A4; National Committee for Clinical Laboratory Standards Villanova, Pa., USA, 1997”. Minimal inhibitory concentrations (MICs; mg/l) were determined in cation-adjusted Mueller-Hinton Broth (BBL) by a microdilution method following NCCLS guidelines (National Committee for Clinical Laboratory Standards. Methods for Dilution Antimicrobial Susceptibility). The pH of the test medium was 7.2-7.3.
(§2) All Examples were tested against several Gram positive and Gram negative bacteria.

[2] = system: S. aureus A798; experiment: MIC by microdilution (NCCLS), S. aureus A798; settings: Staphylococcus aureus, cation-adjusted Mueller-Hinton Broth, pH 7.2-7.3
Procedure: as §1, §2

[3] = system: E. faecalis 29212; experiment: MIC by microdilution (NCCLS), E. faecalis 29212; settings: Enterococcus faecalis, cation-adjusted Mueller-Hinton Broth, pH 7.2-7.3
Procedure: as §1, §2

[4] = system: E. faecium A949; experiment: MIC by microdilution (NCCLS), E. faecium A949; settings: Enterococcus faecium, cation-adjusted Mueller-Hinton Broth, pH 7.2-7.3
Procedure: as §1, §2

[5] = system: S. pneumoniae 49619; experiment: MIC by microdilution (NCCLS), S. pneumoniae 49619; settings: Streptococcus pneumoniae, cation-adjusted Mueller-Hinton Broth, pH 7.2-7.3
Procedure: as §1, §2

[6] = system: H influenzae A921; experiment: MIC by microdilution (NCCLS), H influenzae A921; settings: cation-adjusted Mueller-Hinton Broth, pH 7.2-7.3
Procedure: as §1, §2

[7] = system: M. catarrhalis A894; experiment: MIC by microdilution (NCCLS), M. catarrhalis A894; settings: Moraxella catarrhalis, cation-adjusted Mueller-Hinton Broth, pH 7.2-7.3
Procedure: as §1, §2

[8] = system: E. coli 25922; experiment: MIC by microdilution (NCCLS), E. coli 25922; settings: Escherichia coli, cation-adjusted Mueller-Hinton Broth, pH 7.2-7.3
Procedure: as §1, §2

[9] = system: P. aeruginosa 27853; experiment: MIC by microdilution (NCCLS), P. aeruginosa 27853; settings: Pseudomonas aeruginosa, cation-adjusted Mueller-Hinton Broth, pH 7.2-7.3
Procedure: as §1, §2

SMILES | MIC [1] | MIC [2] | MIC [3] | MIC [4] | MIC [5] | MIC [6] | MIC [7] | MIC [8] | MIC [9]
O=C1CSc2ccc(CNC3CCC(C(=O)c4nc5ccccc5s4)CC3)cc2N1 (stereo not drawn) [Example 1, 6-{[4-(benzothiazole-2-carbonyl)-cyclohexylamino]-methyl}-4H-benzo[1,4]thiazin-3-one] | 0.25 µg/mL (≈ 0.571 µM) | 0.125 µg/mL (≈ 0.286 µM) | 0.5 µg/mL (≈ 1.14 µM) | 1 µg/mL (≈ 2.29 µM) | 2 µg/mL (≈ 4.57 µM) | 0.063 µg/mL (≈ 0.144 µM) | ≤ 0.031 µg/mL | 0.5 µg/mL (≈ 1.14 µM) | 16 µg/mL (≈ 36.6 µM)
Cc1cccc2sc(C(=O)[C@H]3CC[C@H](NCc4ccc5c(c4)NC(=O)CS5)CC3)nc12 [Example 4, 6-{[trans-4-(4-methyl-benzothiazole-2-carbonyl)-cyclohexylamino]-methyl}-4H-benzo[1,4]thiazin-3-one] | 0.125 µg/mL (≈ 0.277 µM) | 0.063 µg/mL (≈ 0.139 µM) | 0.5 µg/mL (≈ 1.11 µM) | 0.25 µg/mL (≈ 0.554 µM) | 1 µg/mL (≈ 2.21 µM) | 0.25 µg/mL (≈ 0.554 µM) | ≤ 0.031 µg/mL | 1 µg/mL (≈ 2.21 µM) | 4 µg/mL (≈ 8.86 µM)
COc1cccc2sc(C(=O)[C@H]3CC[C@H](NCc4ccc5c(n4)NC(=O)CS5)CC3)nc12 [Example 23, 6-{[trans-4-(4-methoxy-benzothiazole-2-carbonyl)-cyclohexylamino]-methyl}-4H-pyrido[3,2-b][1,4]thiazin-3-one] | 1 µg/mL (≈ 2.13 µM) | 0.5 µg/mL (≈ 1.07 µM) | 8 µg/mL (≈ 17.1 µM) | 8 µg/mL (≈ 17.1 µM) | 4 µg/mL (≈ 8.54 µM) | 8 µg/mL (≈ 17.1 µM) | 0.25 µg/mL (≈ 0.533 µM) | 16 µg/mL (≈ 34.1 µM) | > 16 µg/mL
COc1cccc2sc(O[C@H]3CC[C@H](NCc4ccc5c(c4)NC(=O)CS5)CC3)nc12 [Example 28, 6-{[trans-4-(4-methoxy-benzothiazol-2-yloxy)-cyclohexylamino]-methyl}-4H-benzo[1,4]thiazin-3-one] | 8 µg/mL (≈ 17.6 µM) | 1 µg/mL (≈ 2.19 µM) | 16 µg/mL (≈ 35.1 µM) | 16 µg/mL (≈ 35.1 µM) | 16 µg/mL (≈ 35.1 µM) | 16 µg/mL (≈ 35.1 µM) | 0.125 µg/mL (≈ 0.274 µM) | 16 µg/mL (≈ 35.1 µM) | > 16 µg/mL
COc1cccc2sc(C(=O)[C@@H]3CC[C@@H](NCc4ccc5c(n4)NC(=O)CS5)CO3)nc12 [Example 29, (3R,6S)-6-{[6-(4-methoxy-benzothiazole-2-carbonyl)-tetrahydro-pyran-3-ylamino]-methyl}-4H-pyrido[3,2-b][1,4]thiazin-3-one] | 1 µg/mL (≈ 2.13 µM) | 2 µg/mL (≈ 4.25 µM) | 2 µg/mL (≈ 4.25 µM) | 1 µg/mL (≈ 2.13 µM) | 4 µg/mL (≈ 8.5 µM) | 2 µg/mL (≈ 4.25 µM) | 0.125 µg/mL (≈ 0.266 µM) | 16 µg/mL (≈ 34 µM) | > 16 µg/mL
COc1cccc2sc(C(=O)C3CCN(CC(=O)c4ccc5c(c4)NC(=O)CO5)CC3)nc12 [Example 34, 6-{2-[4-(4-methoxy-benzothiazole-2-carbonyl)-piperidin-1-yl]-acetyl}-4H-benzo[1,4]oxazin-3-one] | 1 µg/mL (≈ 2.15 µM) | 2 µg/mL (≈ 4.3 µM) | 16 µg/mL (≈ 34.4 µM) | 4 µg/mL (≈ 8.59 µM) | 16 µg/mL (≈ 34.4 µM) | 2 µg/mL (≈ 4.3 µM) | 0.25 µg/mL (≈ 0.537 µM) | 16 µg/mL (≈ 34.4 µM) | > 16 µg/mL
